Experimental data: patent US5194424A, “C^63 -amide derivatives of 34-de(acetylglucosaminyl)-34-deoxy-teicoplanin and their use as medicaments against bacteria resistant to glycopeptide antibiotics” (Gruppo Lepetit SpA, priority 1988, dated 1993)

How the values were obtained:
[1] = tested on: Streptococcus pyogenes C 203; test: In vitro MIC, standard agar-dilution test in microtiter; type: cell-based; conditions: TODD-HEWITT broth, inoculum about 10^4 CFU/ml, 18-24 h at 37° C.
Experimental: (§1) The antibacterial activity, of the compounds of the invention is determined in vitro by means of standard agar-dilution tests in microtiter. ISOSENSITEST broth (Oxoid) and TODD-HEWITT broth (Difco) are used for growing Staphylococci and Streptococci. respectively. Broth cultures are diluted so that the final inoculum is about 10^4 forming units/ml (CFU/ml).

[2] = tested on: Streptococcus faecalis ATCC 7080; test: as above; type: cell-based; conditions: TODD-HEWITT broth, inoculum about 10^4 CFU/ml, 18-24 h at 37° C.
Experimental: as §1

[3] = tested on: Staphylococcus epidermidis ATCC 12228; test: as above; type: cell-based; conditions: ISOSENSITEST broth, inoculum about 10^4 CFU/ml, 18-24 h at 37° C.
Experimental: as §1

[4] = tested on: Staphylococcus aureus TOUR; test: as above; type: cell-based; conditions: ISOSENSITEST broth, inoculum about 10^4 CFU/ml, 18-24 h at 37° C.
Experimental: as §1

[5] = tested on: Streptococcus pneumoniae UC 41; test: as above; type: cell-based; conditions: TODD-HEWITT broth, inoculum about 10^4 CFU/ml, 18-24 h at 37° C.
Experimental: as §1, with “TODD-[…]” for “TODD-HEWITT”

[6] = tested on: Staphylococcus haemolyticus L 602; test: as above; type: cell-based; conditions: ISOSENSITEST broth, inoculum about 10^4 CFU/ml, 18-24 h at 37° C.
Experimental: as §1, with “TODD-[…]” for “TODD-HEWITT”

[7] = tested on: clinical isolates of Streptococcus pyogenes; test: MIC against clinical isolates of Streptococcus pyogenes; type: cell-based
Experimental: as §1

[8] = tested on: Streptococcus pyogenes C 203; conditions: comparison statement for teicoplanin and prior-art compounds; never lower than; cited from earlier work
[9] = tested on: glycopeptide-resistant E. faecium; test: In vitro MIC against glycopeptide-resistant Enterococci; type: cell-based
Experimental: (§2) In particular, the activity of the compounds of the invention was confirmed through in vitro experiments carried out with clinical isolates resistant to glycopeptide antibiotics such as with Enterococci faecalis, Enterococci faecium, as shown in Table IIa.
(§3) The antibacterial activity is determined in vitro by means of standard
(§4) agardilution tests in microtiter. ISOSENSITEST broth (Oxoid) is used for
(§5) growing Enterococci. Broth cultures are diluted so that the final inoculu
(§6) is about 5 × 10^5 forming units/ml (CFU/ml).

[10] = tested on: glycopeptide-resistant E. faecalis; test: as above; type: cell-based
Experimental: as §2, §3, §4, §5, §6

[11] = E. faecium L 1666, ISOSENSITEST broth, inoculum about 5 × 10^5 CFU/ml

## CC(C)CCCCCCC(=O)N[C@H]1[C@H](Oc2c3cc4cc2Oc2ccc(cc2Cl)CC2NC(=O)C(NC(=O)C4NC(=O)C4NC(=O)C(Cc5ccc(c(Cl)c5)O3)NC(=O)C(N)c3ccc(O)c(c3)Oc3cc(O)cc4c3)c3ccc(O)c(c3)-c3c(O[C@H]4O[C@H](CO)[C@@H](O)[C@H](O)[C@@H]4O)cc(O)cc3C(C(=O)NCCCN(C)C)NC2=O)O[C@H](CO)[C@@H](O)[C@@H]1O (stereo partly shown) [Compound 6]
[1]
  MIC: 0.06 microgram/ml
[2]
  MIC: 2 microgram/ml
[3]
  MIC: 0.12 microgram/ml
[4]
  MIC: 2 microgram/ml
[5]
  MIC: 0.25 microgram/ml
[6]
  MIC: 1 microgram/ml

## teicoplanin
[7]; S. pyogenes strain L-33
  MIC: 0.063 microgram/ml
[7]; S. pyogenes strain L-317
  MIC: 0.063 microgram/ml
[7]; S. pyogenes strain L-800
  MIC: 0.063 microgram/ml
[7]; S. pyogenes strain L-801
  MIC: 0.063 microgram/ml
[7]; S. pyogenes strain L-802
  MIC: 0.063 microgram/ml
[7]; S. pyogenes strain L-803
  MIC: 0.063 microgram/ml
[7]; S. pyogenes strain L-804
  MIC: 0.063 microgram/ml
[7]; S. pyogenes strain L-805
  MIC: 0.063 microgram/ml
[7]; S. pyogenes strain L-1303
  MIC: 0.063 microgram/ml
[7]; S. pyogenes strain L-1304
  MIC: 0.125 microgram/ml
[7]; S. pyogenes strain L-1306
  MIC: 0.125 microgram/ml
[7]; S. pyogenes strain L-1315
  MIC: 0.063 microgram/ml
[7]; S. pyogenes strain L-1316
  MIC: 0.063 microgram/ml
[7]; S. pyogenes strain L-1318
  MIC: 0.063 microgram/ml
[7]; S. pyogenes strain L-1319
  MIC: 0.063 microgram/ml
[8]
  MIC against Streptococcus pyogenes: ≥ 0.06 microgram/ml
[9]; [11]
  MIC: > 128 µg/mL
[9]; E. faecium NCTC 12203, ISOSENSITEST broth, inoculum about 5 × 10^5 CFU/ml
  MIC: 64 µg/mL
[9]; E. faecium NTCT 12204, ISOSENSITEST broth, inoculum about 5 × 10^5 CFU/ml
  MIC: 64 µg/mL
[10]; E. faecalis L 560, ISOSENSITEST broth, inoculum about 5 × 10^5 CFU/ml
  MIC: > 128 µg/mL
[10]; E. faecalis NCTC 12201, ISOSENSITEST broth, inoculum about 5 × 10^5 CFU/ml
  MIC: 128 µg/mL
[10]; E. faecalis NCTC 12202, ISOSENSITEST broth, inoculum about 5 × 10^5 CFU/ml
  MIC: 128 µg/mL

## CC(C)CCCCCCC(=O)N[C@H]1[C@H](Oc2c3cc4cc2Oc2ccc(cc2Cl)CC2NC(=O)C(NC(=O)C4NC(=O)C4NC(=O)C(Cc5ccc(c(Cl)c5)O3)NC(=O)C(N)c3ccc(O)c(c3)Oc3cc(O)cc4c3)c3ccc(O)c(c3)-c3c(O[C@H]4O[C@H](CO)[C@@H](O)[C@H](O)[C@@H]4O)cc(O)cc3C(C(=O)NCCCN(CCCN)CCCN)NC2=O)O[C@H](CO)[C@@H](O)[C@@H]1O (stereo partly shown) [Compound 33]
[1]
  MIC: 0.004 microgram/ml
[2]
  MIC: 0.12 microgram/ml
[3]
  MIC: 0.004 microgram/ml
[4]
  MIC: 0.12 microgram/ml
[5]
  MIC: 0.12 microgram/ml
[6]
  MIC: 0.032 microgram/ml

## CN[C@H](CC(C)C)C(=O)N[C@H]1C(=O)N[C@@H](CC(N)=O)C(=O)N[C@H]2C(=O)N[C@H]3C(=O)N[C@H](C(=O)N[C@H](C(=O)O)c4cc(O)cc(O)c4-c4cc3ccc4O)[C@H](O)c3ccc(c(Cl)c3)Oc3cc2cc(c3O[C@@H]2O[C@H](CO)[C@@H](O)[C@H](O)[C@H]2O[C@H]2C[C@](C)(N)[C@H](O)[C@H](C)O2)Oc2ccc(cc2Cl)[C@H]1O [VANCO, vancomycin]
[9]; [11]
  MIC: > 128 µg/mL
[9]; Enterococcus faecium
  MIC: > 128 µg/mL
[9]; Enterococcus faecium, NCTC12203
  MIC: > 128 µg/mL
[10]; Enterococcus faecalis
  MIC: > 128 µg/mL
[10]; Enterococcus faecalis, NCTC12201
  MIC: > 128 µg/mL
[10]; Enterococcus faecalis, NCTC12202
  MIC: > 128 µg/mL

## CC(C)CCCCCCC(=O)N[C@H]1[C@H](Oc2c3cc4cc2Oc2ccc(cc2Cl)CC2NC(=O)C(NC(=O)C4NC(=O)C4NC(=O)C(Cc5ccc(c(Cl)c5)O3)NC(=O)C(N)c3ccc(O)c(c3)Oc3cc(O)cc4c3)c3ccc(O)c(c3)-c3c(O[C@H]4O[C@H](CO)[C@@H](O)[C@H](O)[C@@H]4O)cc(O)cc3C(C(=O)NCCCNCCO)NC2=O)O[C@H](CO)[C@@H](O)[C@@H]1O (stereo partly shown) [Compound 7]
[1]
  MIC: 0.032 microgram/ml
[2]
  MIC: 2 microgram/ml
[3]
  MIC: 0.06 microgram/ml
[4]
  MIC: 1 microgram/ml
[5]
  MIC: 0.25 microgram/ml
[6]
  MIC: 1 microgram/ml
